US8912230B2, “Method for treating cell degeneration using at least one molecule capable of inhibiting adhesion molecule expression and vascular endothelium actin fibre polymerization” (Aisa Therapeutics, priority 2004, dated 2014)

Tests used:
rats = settings: rat, in vivo; cited from earlier work
C57/BL6 mice = assay: Preliminary in vivo toxicity study, blood cell count (Cell Dyn 3500/3700); parameters: species or system mouse
Method: FIGS. 11-25 depict the in vivo toxicity study for the natural and synthetic forms (respectively “NAT” and “SYN”) of geranyl acetate—a molecule called “AISA 5201” and selected for its representativeness of the AISA class—in a mouse model, for blood cell count parameters, at concentrations of 5, 10, 25, and 50 μg/mouse which correspond to non-toxic in vitro concentrations, allowing the desired biological effect to be observed, i.e. the inhibition of endothelial adhesion and endothelial actin polymerisation.
Two methods were used, one with the synthetic form named herein “SYN” (SIGMA catalogue number 173495), and the other with the natural unfiltered form (derived from geranium essential oils treated by HPLC) named herein “NAT”, of said molecule.
On the basis of the in vitro toxicity experiments, the “SYN” and “NAT” molecules were first tested on C57/BL6 mice at concentrations of 10, 25, and 50 μg/mouse, as well as on a control batch which was injected with PBS, either via the IP (intraperitoneal) or retro-orbital (IV) routes. Each batch consisted of 4 animals. A total of 16 animals was used.
Following the experiment, a blood cell count was performed using the Cell Dyn Systems 3500/3700 machine from Abbott Laboratories. This test was carried out to reveal any possible functional alterations. […]

SMILES	LD50 (rats)	most appropriate concentration (WBC, NEU, LYM, MONO and PLT values closest to control) (C57/BL6 mice; first experiment, 10, 25, 50 μg/mouse tested)	blood cell count (C57/BL6 mice; mouse, in vivo)
CC(=O)OC/C=C(\C)CCC=C(C)C [AISA 5201, (E)-3,7-dimethyl-2,6-octadienyl acetate]	6,330 mg/kg	–	–
CC(=O)OC/C=C(\C)CCC=C(C)C [NAT, geranyl acetate]	–	50 μg/mouse	remaining within the values of the standard range
